According to article doi:10.1101/2020.07.28.225383v1 (biorxiv, 2020):

Experiments:
[1] = target: SkMII (skeletal muscle myosin II); assay: NADH-linked ATPase assay, quadratic […] binding fit; type: biochemical
[2] = target: CMII (bovine cardiac myosin II, MYH7) (Bos taurus, UniProt Q9BE39); assay: as above; type: biochemical
Chain of CMII (bovine cardiac myosin II, MYH7) (Q9BE39 whole entry): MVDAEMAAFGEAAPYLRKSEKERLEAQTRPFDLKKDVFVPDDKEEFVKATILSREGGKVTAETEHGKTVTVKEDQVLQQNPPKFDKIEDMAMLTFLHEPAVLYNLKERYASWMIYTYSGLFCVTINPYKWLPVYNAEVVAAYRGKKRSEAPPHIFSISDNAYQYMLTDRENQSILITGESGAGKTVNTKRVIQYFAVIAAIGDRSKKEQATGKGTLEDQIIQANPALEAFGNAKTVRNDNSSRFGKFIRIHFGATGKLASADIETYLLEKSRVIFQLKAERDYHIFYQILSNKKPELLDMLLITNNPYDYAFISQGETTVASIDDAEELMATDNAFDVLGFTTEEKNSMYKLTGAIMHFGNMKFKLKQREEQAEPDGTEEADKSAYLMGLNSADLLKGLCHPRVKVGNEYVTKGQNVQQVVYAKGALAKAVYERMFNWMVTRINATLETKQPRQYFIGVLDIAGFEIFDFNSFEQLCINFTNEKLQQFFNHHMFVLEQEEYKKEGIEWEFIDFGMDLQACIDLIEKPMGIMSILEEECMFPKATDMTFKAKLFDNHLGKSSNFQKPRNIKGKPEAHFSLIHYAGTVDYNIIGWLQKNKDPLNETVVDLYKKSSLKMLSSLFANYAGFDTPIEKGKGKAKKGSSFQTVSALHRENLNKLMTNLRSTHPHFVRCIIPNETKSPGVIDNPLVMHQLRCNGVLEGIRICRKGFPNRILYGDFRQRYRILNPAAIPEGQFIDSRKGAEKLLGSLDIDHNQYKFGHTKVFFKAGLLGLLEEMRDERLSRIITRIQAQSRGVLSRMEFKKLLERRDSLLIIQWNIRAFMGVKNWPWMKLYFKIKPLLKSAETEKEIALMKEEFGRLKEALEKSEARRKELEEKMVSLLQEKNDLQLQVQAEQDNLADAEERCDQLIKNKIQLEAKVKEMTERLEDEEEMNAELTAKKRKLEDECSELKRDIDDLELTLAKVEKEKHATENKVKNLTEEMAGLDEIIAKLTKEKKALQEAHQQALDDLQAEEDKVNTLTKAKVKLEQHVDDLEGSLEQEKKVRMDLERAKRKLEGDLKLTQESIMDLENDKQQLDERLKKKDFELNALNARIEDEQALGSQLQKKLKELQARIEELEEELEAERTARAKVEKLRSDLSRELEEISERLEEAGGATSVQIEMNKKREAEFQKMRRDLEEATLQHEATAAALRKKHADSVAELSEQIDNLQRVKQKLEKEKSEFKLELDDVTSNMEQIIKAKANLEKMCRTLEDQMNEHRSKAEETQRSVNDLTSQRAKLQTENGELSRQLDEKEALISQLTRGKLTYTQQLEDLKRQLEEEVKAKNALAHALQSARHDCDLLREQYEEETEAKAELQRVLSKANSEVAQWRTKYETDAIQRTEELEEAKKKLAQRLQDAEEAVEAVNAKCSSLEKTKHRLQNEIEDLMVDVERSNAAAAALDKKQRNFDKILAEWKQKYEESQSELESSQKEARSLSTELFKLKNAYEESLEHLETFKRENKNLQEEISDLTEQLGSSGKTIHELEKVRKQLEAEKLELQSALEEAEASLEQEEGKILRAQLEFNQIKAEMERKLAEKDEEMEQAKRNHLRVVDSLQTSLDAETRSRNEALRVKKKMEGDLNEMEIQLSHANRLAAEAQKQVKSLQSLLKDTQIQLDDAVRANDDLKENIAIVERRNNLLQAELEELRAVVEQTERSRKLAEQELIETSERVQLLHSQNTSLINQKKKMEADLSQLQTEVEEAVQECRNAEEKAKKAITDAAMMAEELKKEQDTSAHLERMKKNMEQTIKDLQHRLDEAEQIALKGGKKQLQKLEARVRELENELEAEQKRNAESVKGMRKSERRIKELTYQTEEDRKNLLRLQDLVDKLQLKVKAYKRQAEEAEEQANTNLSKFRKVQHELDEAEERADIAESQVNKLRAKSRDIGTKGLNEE

SMILES | Ki [1] | Ki [2]
Cc1ccc2c(c1)C(=O)[C@]1(O)CCN(c3ccccc3)C1=N2 [Blebbistatin] | 280 nM | 1.9 µM
Cc1ccc2c(c1)C(=O)[C@]1(O)CCN(c3cnc4nc(C)oc4c3)C1=N2 [Skeletostatin 1, (S)-3a-hydroxy-6-methyl-1-(2-methyloxazolo[4,5-b]pyridin-6-yl)-1,2,3,3a-tetrahydro-4H-pyrrolo[2,3-b]quinolin-4-one] | 480 nM | 83 µM
CC(=O)Nc1ccc(N2CC[C@@]3(O)C(=O)c4cc(C)ccc4N=C23)cc1 [Skeletostatin 2, (S)-N-(4-(3a-hydroxy-6-methyl-4-oxo-2,3,3a,4-tetrahydro-1H-pyrrolo[2,3-b]quinolin-1-yl)phenyl)acetamide] | 270 nM | 34 µM
Cc1ccc2c(c1)C(=O)[C@]1(O)CCN(c3ccc(N4CCOCC4)cc3)C1=N2 [Skeletostatin 3, (S)-3a-hydroxy-6-methyl-1-(4-morpholinophenyl)-1,2,3,3a-tetrahydro-4H-pyrrolo[2,3-b]quinolin-4-one] | 790 nM | > 56 µM
